Results from US20240132479A1, “THERAPEUTIC COMPOUNDS AND USES THEREOF” (Board of Trustees of Michigan State University, priority 2021, published 2024).
Converted amounts (≈) assume the structure as drawn.

Key:
[1] = tested on: rifampin resistant (RIF:rpoBS450L) strain (ATCC #35838); format: cell-based, Mycobacterium tuberculosis
[2] = tested on: isoniazid resistant (INH: katGdel) strain (MS015); assay: microbe, parasite or virus in culture; format: cell-based; conditions: Mycobacterium tuberculosis, H37RV, read-out: MIC H37Rv (katG^del)
[3] = tested on: moxifloxacin resistant (MOX: gyrD94K) strain (MOX3); format: cell-based, Mycobacterium tuberculosis

SMILES | MIC H37Rv (rpoB^S450L) [1] | MIC [2] | MIC H37Rv (gyrA^D94K) [3]
CC(C)N(C(=O)CCc1nc2cc(Cl)c(Cl)cc2[nH]1)C(C)C [Example 19] | ≤0.125 µg/mL | ≤ 0.125 µg/mL | ≤0.125 µg/mL
Cc1cc2nc(CCC(=O)N(C(C)C)C(C)C)[nH]c2cc1C [Example 21A] | 0.25 µg/mL (≈ 0.829 µM) | ≤ 0.125 µg/mL | ≤0.125 µg/mL
Cc1cc2nc(SCC(=O)N(C(C)C)C(C)C)[nH]c2cc1C [Example 2, 2-[(5,6-dimethyl-1H-1,3-benzodiazol-2-yl)sulfanyl]-N,N-bis(propan-2-yl)acetamide] | 0.25 µg/mL (≈ 0.783 µM) | 0.5 µg/mL (≈ 1.57 µM) | 0.5 µg/mL (≈ 1.57 µM)
